“And” between values parts separate entries of the source, which are not always exact repeats. Equal values may be shown once. “Also recorded” adds a separate entry of the source. Read-outs that look alike come from different tables or passages of the source.
Tests used:
HuH-7 cells = experiment: MTT cytotoxicity assay of AFB1 on HuH-7 cells; assay type: cell-based
Experimental: MTT assay was used to determine the cytotoxicity effect of AFB1. In brief, cells were seeded on 96 well plate. At the time of assay, culture medium was replaced by 100 μL fresh medium containing 10 μL of 5 mg/mL MTT stock solution for each well. After 4 hr of labeling cells with MTT, medium was removed then 100 μL DMSO was added to each well for 10 min at 37° C. Samples were mixed and read absorbance at 540 nm. For half lethal concentration (LC50) determination, seven thousand HuH-7 cells were seeded on 96 well plate for 18 hr. Cells were treated with different concentration of AFB1 and MTT assay was performed at series time points, triplicate for each set. The survival percentage is calculated by dividing the OD value of treatment group by solvent control group. For cytotoxicity assay, five thousand HuH-7 cells were infected with different amount of adenovirus or lentivirus carrying GNMT cDNA for 8 hr then refreshed medium for another 10 hr. After 72 hr of AFB1 treatment, MTT assay was performed to determine the survival percentage.
MTT assay was used to determine the percentage of survived cells. To optimize the condition of cytotoxicity assay, HuH-7 cells were treated with different concentrations of AFB1 for series time course. […] The cytotoxicity effect of treatment up to 16 μM AFB1 was obscure within 24 hr. […]

wild-type mice [1] = settings: mouse, in vivo
Gnmt−/− mice = settings: mouse, in vivo
wild-type mice [2] = settings: mouse, in vivo; remark: listed apart in the source
GNMT-TG mice = settings: mouse, in vivo
GNMT = assay type: cell-based

Substance: aflatoxin B1 [AFB1]
- cytotoxicity effect (HuH-7 cells): obscure
- HE staining of histological liver sections (wild-type mice [1]): no abnormalities
- ALT (wild-type mice [1]; ip): 27.5 ± 0.71 U/L and 22.83 ± 3.92 U/L
- AST (wild-type mice [1]; ip): 72.00 ± 58.92 U/L and 42.50 ± 8.22 U/L
- Nodules <0.5 cm (wild-type mice [1]; ip): 0
- Nodules >0.5 cm (wild-type mice [1]; ip): 0
- HE staining of histological liver sections (Gnmt−/− mice): Dysplastic nodule, early HCC and fatty nodules; also recorded: Sclenosing HCC, Dysplastic nodule with focal fatty change
- Nodules <0.5 cm (Gnmt−/− mice; ip): 3 and 6
- Nodules >0.5 cm (Gnmt−/− mice; ip): 4 and 5
- Pathological examination of liver (wild-type mice [2]): dysplasia and HCC
- ALT (wild-type mice [2]; ip): 134 ± 112 and 109 ± 97
- liver/body weight % (wild-type mice [2]; ip): 4.7 ± 0.3% and 4.0 ± 0.7%
- Pathological examination of liver (GNMT-TG mice): normal pattern
- ALT (GNMT-TG mice; ip): 61 ± 37 and 100 ± 73
- liver/body weight % (GNMT-TG mice; ip): 4.5 ± 0.9% and 3.7 ± 0.4%
- GNMT distribution following AFB1 treatment (GNMT): partly translocated to cell nuclei

From US7759542B2, “Glycine N-methyltransferase (GNMT) animal model and use thereof” (priority 2007, dated 2010)
